1 compound from patent US11591306B2, “Vitamin E-based amphipathic compound, and use thereof” (Industry-University Cooperation Foundation Hanyang …, priority 2017, dated 2023) can be followed below.

The target of one data set is UapA (Emericella nidulans, UniProt Q07307, G411V). Kind of data set: UapA extraction and thermal stability by fluorescence size exclusion chromatography (FSEC). On the set-up: made in house. As for the experimental part: The membrane containing UapA was resuspended in a pH 8.0 PBS buffer containing 10 mM imidazole, 150 mM NaCl and 10% glycerol, and a protein concentration was measured. The membrane was adjusted to a concentration of 1 mg/ml, and a 1 ml aliquot was incubated for 60 minutes with each of 1.0 mL of DDM, LMNG, VEG-3 and VEG-5, on ice under stirring. A 100 uL aliquot was obtained from each tube and subjected to ultracentrifugation for 10 minutes at 150,000 g, and then fluorescent SEC (FSEC) was performed on each sample. The remaining soluble fractions were incubated for 10 minutes at 45° C. The thermally-treated samples were applied to FSEC to monitor the integrity of a transporter. FSEC was performed using a Superose6 column (GE Healthcare) equilibrated with a buffer containing an appropriate preparation (DDM, LMNG, VEG-3 or VEG-5).
Sequence of UapA (Q07307 12-574 G411V): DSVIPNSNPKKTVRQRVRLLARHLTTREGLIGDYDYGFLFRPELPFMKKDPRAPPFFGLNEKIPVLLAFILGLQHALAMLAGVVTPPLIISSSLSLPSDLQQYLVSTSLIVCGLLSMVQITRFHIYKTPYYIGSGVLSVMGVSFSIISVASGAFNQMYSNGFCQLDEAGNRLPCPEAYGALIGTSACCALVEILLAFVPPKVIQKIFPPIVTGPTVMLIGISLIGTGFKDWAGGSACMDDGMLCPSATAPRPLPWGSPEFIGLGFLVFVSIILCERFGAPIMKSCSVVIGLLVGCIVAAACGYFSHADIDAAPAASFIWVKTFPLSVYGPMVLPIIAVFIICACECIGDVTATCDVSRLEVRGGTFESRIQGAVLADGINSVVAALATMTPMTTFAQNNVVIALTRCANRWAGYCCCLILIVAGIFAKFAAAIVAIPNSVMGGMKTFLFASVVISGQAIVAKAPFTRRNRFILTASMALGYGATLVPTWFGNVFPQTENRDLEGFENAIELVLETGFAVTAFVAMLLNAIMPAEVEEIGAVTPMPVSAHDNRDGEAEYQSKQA

Data set [1] has as its target T1, MelBSt (melibiose permease) (Salmonella typhimurium, UniProt P30878).
T1 construct: made in house; host or cells: E. coli DW2 (ΔmelB and ΔlacZY), plasmid pK95ΔAHB/WT MelBSt/CH10
The data set is described as follows: MelBSt extraction/solubilization and thermal stability, SDS-PAGE and Western blotting. How it is done: Specifically, Salmonella typhimurium MelBSt (melibiose permease) having a 10 His tag at the C-terminus was expressed in E. coli DW2 cells (ΔmelB and ΔlacZY) using a pK95ΔAHB/WT MelBSt/CH10 plasmid. Cell growth and membrane preparation were carried out according to the methods disclosed in the paper written by A. S. Ethayathulla et al. (Nat. Commun. 2014, 5, 3009). A protein assay was performed using a Micro BCA kit (Thermo Scientific, Rockford, Ill.). MelBSt stability in VEGs or DDM was evaluated using the protocol disclosed in Nat. Methods 2010, 7, 1003-1008, written by P. S. Chae et al. A MelBSt-containing membrane sample (the final protein concentration was 10 mg/mL) was incubated in a solubilization buffer containing 1.5% (w/v) DDM or VEGs (50 mM sodium phosphate, pH 7.5, 200 mM NaCl, 10% glycerol, 20 mM melibiose) at two different temperatures (0 and 23° C.) for 90 minutes. To remove an insoluble material, ultracentrifugation was performed using a Beckman Optima™ MAX ultracentrifuge equipped with a TLA-100 rotor at 355,590 g and 4° C. for 30 minutes. […] The loaded samples were analyzed by SDS-15% PAGE, and then visualized by immunoblotting with a Penta-His-HRP antibody (Qiagen, Germantown, Md.).
To assess the thermal stability of MelBSt in various amphipathic molecules, MelBSt extracted with individual amphipathic molecules at 23° C. was subjected to additional thermal treatment at three different temperature (45, 55 and 65° C.) and ultracentrifugation, followed by SDS-15% PAGE and Western blotting. MelBSt was detected using a SuperSignalWest Pico chemiluminescent substrate by an ImageQuant LAS 4000 Biomolecular Imager (GE Healthcare Life Science).
On the technique in general: Immunoblotting shows a protein as a band on a membrane.

Data set [2] in a line: Hydrodynamic radius of micelles by dynamic light scattering (DLS). It is filed as physicochemical. Particulars: at 1.0 wt %. How it is done: A method of measuring the radius of a micelle is not particularly limited, but may be a method well known in the art, for example, dynamic light scattering (DLS).
(§1) To identify the properties of VEGs synthesized according to the synthetic methods of Preparation Examples 1 to […] molecular weights (M.W.) and critical micellar concentrations (CMCs) of VEGs, and the hydrodynamic radii (Rh) of formed micelles were measured.
(§2) Specifically, the CMCs were measured using hydrophobic fluorescence staining and diphenylhexatriene (DPH), and the hydrodynamic radii (Rh) of the micelles formed by each formulation were measured by dynamic light scattering (DLS).

Data set [3] in a line: Critical micelle concentration by hydrophobic fluorescence staining with diphenylhexatriene (DPH). It is filed as physicochemical. Particulars: aqueous solution. How it is done:
A method of measuring CMC is not particularly limited, and may be a method widely known in the art, for example, fluorescent staining using diphenylhex riene (DPH).
as §1, §2

The target of a further data set is T2, β2AR (Homo sapiens, UniProt P07550).
T2 construct: made in house; host or cells: Sf9 insect cells, baculovirus
T2 sequence (P07550 whole entry): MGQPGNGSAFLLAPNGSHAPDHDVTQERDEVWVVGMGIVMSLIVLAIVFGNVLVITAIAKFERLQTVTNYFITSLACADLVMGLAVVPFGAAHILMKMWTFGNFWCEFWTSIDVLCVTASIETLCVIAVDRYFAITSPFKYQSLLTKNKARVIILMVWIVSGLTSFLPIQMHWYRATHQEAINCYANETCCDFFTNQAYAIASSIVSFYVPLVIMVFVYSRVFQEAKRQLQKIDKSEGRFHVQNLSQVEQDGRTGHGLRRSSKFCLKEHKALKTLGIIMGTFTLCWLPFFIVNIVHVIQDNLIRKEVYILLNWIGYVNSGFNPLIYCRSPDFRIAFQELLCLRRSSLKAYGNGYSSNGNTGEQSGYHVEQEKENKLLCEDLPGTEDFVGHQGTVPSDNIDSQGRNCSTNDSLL
The data set is described as follows: β2AR stability, [3H]-dihydroalprenolol (DHA) ligand binding. Particulars: CMC+0.2 wt %, 10 days at room temperature. As for the experimental part:
A receptor was expressed in Sf9 insect cells infected with Baculovirus and solubilized in 1% DDM. The DDM-solubilized receptor was purified by alprenolol-sepharose in the presence of 0.01% cholesteryl succinate (CHS). β2AR purified by DDM was diluted with a buffer containing DDM or VEGs (VEG-1, VEG-2, VEG-3 and VEG-5) to reach the final concentration of CMC+0.2 wt %. β2AR solubilized in each compound was stored for 10 days at room temperature, and the ligand binding ability of the receptor was measured at regular intervals by incubating the receptor with 10 nM radioactive [^3H]-dihydroalprenolol (DHA) for 30 minutes at room temperature. The mixture was loaded into a G-50 column, and a supernatant was collected using a certain amount of binding buffer (supplemented with […] pH 7.5, 100 mM NaCl, 0.5 mg/ml BSA). In addition, a 15 ml scintillation fluid was added. Receptor-binding [^3H]-DHA was measured using a scintillation counter (Beckman).

T1 sequence (P30878 whole entry): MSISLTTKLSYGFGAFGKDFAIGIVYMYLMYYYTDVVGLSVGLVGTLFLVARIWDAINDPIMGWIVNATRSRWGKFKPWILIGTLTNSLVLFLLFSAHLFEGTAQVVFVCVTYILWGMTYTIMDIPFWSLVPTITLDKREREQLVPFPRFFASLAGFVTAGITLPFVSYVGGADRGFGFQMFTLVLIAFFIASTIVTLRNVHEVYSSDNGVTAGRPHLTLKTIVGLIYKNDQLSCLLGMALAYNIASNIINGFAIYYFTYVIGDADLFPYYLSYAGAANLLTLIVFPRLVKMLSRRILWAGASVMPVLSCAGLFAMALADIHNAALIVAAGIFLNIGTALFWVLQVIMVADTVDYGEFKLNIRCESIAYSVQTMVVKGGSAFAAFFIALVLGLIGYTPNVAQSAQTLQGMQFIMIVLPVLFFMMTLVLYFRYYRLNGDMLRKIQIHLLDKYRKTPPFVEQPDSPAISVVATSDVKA

As to `Cc1c(C)c2c(c(C)c1OCC(=O)NC(CO[C@@H]1OC(CO)[C@@H](O[C@H]3OC(CO)[C@@H](O)[C@H](O)C3O)[C@H](O)C1O)CO[C@@H]1OC(CO)[C@@H](O[C@H]3OC(CO)[C@@H](O)[C@H](O)C3O)[C@H](O)C1O)CCC(C)(CCCC(C)CCCC(C)CCCC(C)C)O2` (some centres unmarked) [VEG-3], the “UapA integrity after thermal treatment (FSEC)” value on UapA (45° C. for 10 minutes) is reported as “maintained protein integrity”. Moreover, the “Ability to extract and solubilize UapA (FSEC)” value on UapA (before thermal treatment, 60 minutes on ice) is “LMNG and DDM were superior to VEG-3 and VEG-5”. Besides, the MelBSt solubilization ability entry in data set [1] (1.5 wt %, extracted at 23° C., then 65° C.) is “very excellent protein solubilization ability”. Moreover, in data set [1] (elevated temperatures (overall)), the “MelBSt transporter solubilization ability in the thermal stability experiment” value was “higher transporter solubilization ability than DDM”. Besides, the “Rh (nm), hydrodynamic radius of micelles” value in data set [2] was found to be 4.8 ± 0.1 nm. In data set [3], the “CMC” value is about 0.002 mM and the “CMC (wt %)” value is given as about 0.0002 wt %. The “Long-term β2AR activity ([3H]-DHA binding)” value on β2AR is “consistently maintained during incubation for 10 days”.
